Results as given in the CheMixHub viscosity set.
± gives the uncertainty stated by the source.

Assay: xn = mol fraction of the nth substance listed

CCCN + CCN(CC)CC
303.15 K, 101.33 kPa
Conditions	viscosity [mPa·s]
x2 = 0.1027	0.3371 ± 0.0049
x2 = 0.2061	0.3317 ± 0.0049
x2 = 0.3991	0.3268 ± 0.0049
x2 = 0.495	0.3278 ± 0.0049
x2 = 0.6009	0.331 ± 0.0049
x2 = 0.7911	0.3408 ± 0.005
x2 = 0.8925	0.3499 ± 0.005

Oc1ccccc1Cl + CCN(CC)CC
298 K, 101.33 kPa
Conditions	viscosity [mPa·s]
x1 = 0.074	0.447 ± 0.0089
x1 = 0.305	1.41 ± 0.028
x1 = 0.408	3.58 ± 0.072
x1 = 0.473	7.81 ± 0.16
x1 = 0.552	26.2 ± 0.52
x1 = 0.616	109 ± 2.2
x1 = 0.65	255 ± 5.1
x1 = 0.703	529 ± 11
x1 = 0.72	594 ± 12
x1 = 0.751	451 ± 9
x1 = 0.769	343 ± 6.9
x1 = 0.797	213 ± 4.3
x1 = 0.843	68.9 ± 1.4
x1 = 0.87	34.3 ± 0.69
x1 = 0.901	18.3 ± 0.37
x1 = 0.956	5.91 ± 0.12

Oc1ccccc1Cl + CCN(CC)c1ccccc1
viscosity [mPa·s], 101 kPa
Conditions	x1 = 0.1	x1 = 0.2015	x1 = 0.3033	x1 = 0.4011	x1 = 0.497	x1 = 0.6026	x1 = 0.7	x1 = 0.7988	x1 = 0.9003
298 K	2.116 ± 0.054	2.366 ± 0.061	2.722 ± 0.07	3.122 ± 0.08	3.629 ± 0.093	4.195 ± 0.11	4.548 ± 0.12	4.623 ± 0.12	4.12 ± 0.11
303 K	1.858 ± 0.048	2.053 ± 0.053	2.31 ± 0.059	2.589 ± 0.066	2.933 ± 0.075	3.337 ± 0.085	3.533 ± 0.09	3.605 ± 0.092	3.32 ± 0.085
308 K	1.668 ± 0.043	1.818 ± 0.047	2.013 ± 0.052	2.192 ± 0.056	2.432 ± 0.062	2.741 ± 0.07	2.89 ± 0.074	2.938 ± 0.075	2.769 ± 0.071
313 K	1.507 ± 0.039	1.626 ± 0.042	1.775 ± 0.046	1.94 ± 0.05	2.12 ± 0.054	2.318 ± 0.059	2.42 ± 0.062	2.463 ± 0.063	2.361 ± 0.061
318 K	1.37 ± 0.035	1.47 ± 0.038	1.641 ± 0.042	1.701 ± 0.044	1.841 ± 0.047	1.998 ± 0.051	2.086 ± 0.054	2.129 ± 0.055	2.135 ± 0.055

Oc1ccccc1Cl + CCNc1ccccc1
viscosity [mPa·s], 101 kPa
Conditions	x1 = 0.1027	x1 = 0.2022	x1 = 0.3028	x1 = 0.4011	x1 = 0.5014	x1 = 0.6004	x1 = 0.7024	x1 = 0.7991	x1 = 0.8994
298 K	2.403 ± 0.062	2.916 ± 0.075	3.666 ± 0.094	4.186 ± 0.11	4.763 ± 0.12	5.01 ± 0.13	5.008 ± 0.13	4.647 ± 0.12	4.064 ± 0.1
303 K	2.117 ± 0.054	2.487 ± 0.064	3.051 ± 0.078	3.372 ± 0.086	3.807 ± 0.097	4.028 ± 0.1	3.972 ± 0.1	3.751 ± 0.096	3.335 ± 0.085
308 K	1.852 ± 0.048	2.161 ± 0.055	2.557 ± 0.066	2.828 ± 0.072	3.16 ± 0.081	3.314 ± 0.085	3.299 ± 0.084	3.134 ± 0.08	2.844 ± 0.073
313 K	1.673 ± 0.043	1.885 ± 0.048	2.206 ± 0.057	2.407 ± 0.062	2.662 ± 0.068	2.771 ± 0.071	2.782 ± 0.071	2.67 ± 0.068	2.452 ± 0.063
318 K	1.491 ± 0.038	1.67 ± 0.043	1.925 ± 0.049	2.166 ± 0.056	2.287 ± 0.059	2.372 ± 0.061	2.392 ± 0.061	2.317 ± 0.059	2.137 ± 0.055
